Experimental data reported in the NIST ThermoML archive (doi:10.1021/je900600c).
Numbers after ± are expanded uncertainties.

Experiments:
[1] = 101 kPa, Liquid; for electrical conductivity: Frequency=0.0005 MHz, crison conductivimeter
[2] = xn = mol fraction of the nth substance listed; details: 101 kPa, Liquid; for electrical conductivity: Frequency=0.0005 MHz, crison conductivimeter

SMILES: CCCCCCn1cc[n+](C)c1.F[B-](F)(F)F [1-hexyl-3-methylimidazolium tetrafluoroborate]
- viscosity ([1]; 288.15 K): 357.5 ± 150 mPa·s
- viscosity ([1]; 298.15 K): 190.9 ± 55 mPa·s
- electrical conductivity ([1]; 298.15 K): 0.126 ± 0.013 S/m
- viscosity ([1]; 308.15 K): 110.3 ± 19 mPa·s
- viscosity ([1]; 318.15 K): 68.5 ± 4.7 mPa·s

SMILES: CCCCn1cc[n+](C)c1.F[B-](F)(F)F [1-butyl-3-methylimidazolium tetrafluoroborate]
- viscosity ([1]; 288.15 K): 173.5 ± 47 mPa·s
- viscosity ([1]; 298.15 K): 99.2 ± 15 mPa·s
- electrical conductivity ([1]; 298.15 K): 0.352 ± 0.035 S/m
- viscosity ([1]; 308.15 K): 61.3 ± 2.8 mPa·s
- viscosity ([1]; 318.15 K): 40.4 ± 2.1 mPa·s

SMILES: O [water]
- viscosity ([1]; 288.15 K): 1.137 ± 0.12 mPa·s
- viscosity ([1]; 298.15 K): 0.89 ± 0.11 mPa·s
- viscosity ([1]; 308.15 K): 0.719 ± 0.098 mPa·s
- viscosity ([1]; 318.15 K): 0.597 ± 0.092 mPa·s

SMILES: CCCCCCn1cc[n+](C)c1.F[B-](F)(F)F [1-hexyl-3-methylimidazolium tetrafluoroborate] + O
- electrical conductivity ([2]; 288.15 K, x2 = 0.4907): 0.625 ± 0.063 S/m
- viscosity ([2]; 288.15 K, x2 = 0): 357.5 ± 150 mPa·s
- viscosity ([2]; 288.15 K, x2 = 0.1101): 200.6 ± 60 mPa·s
- viscosity ([2]; 288.15 K, x2 = 0.1679): 151 ± 36 mPa·s
- viscosity ([2]; 288.15 K, x2 = 0.2812): 100.3 ± 15 mPa·s
- viscosity ([2]; 288.15 K, x2 = 0.3581): 65.4 ± 3.9 mPa·s
- viscosity ([2]; 288.15 K, x2 = 0.4987): 38.7 ± 2 mPa·s
- viscosity ([2]; 288.15 K, x2 = 0.5075): 36.4 ± 1.9 mPa·s
- viscosity ([2]; 288.15 K, x2 = 0.573): 29.4 ± 1.5 mPa·s
- viscosity ([2]; 288.15 K, x2 = 0.72): 17.55 ± 0.93 mPa·s
- electrical conductivity ([2]; 298.15 K, x2 = 0): 0.126 ± 0.013 S/m
- electrical conductivity ([2]; 298.15 K, x2 = 0.1164): 0.202 ± 0.02 S/m
- electrical conductivity ([2]; 298.15 K, x2 = 0.2364): 0.337 ± 0.035 S/m
- electrical conductivity ([2]; 298.15 K, x2 = 0.3232): 0.484 ± 0.049 S/m
- electrical conductivity ([2]; 298.15 K, x2 = 0.3942): 0.627 ± 0.063 S/m
- electrical conductivity ([2]; 298.15 K, x2 = 0.4548): 0.798 ± 0.08 S/m
- electrical conductivity ([2]; 298.15 K, x2 = 0.4907): 0.983 ± 0.099 S/m
- electrical conductivity ([2]; 298.15 K, x2 = 0.5294): 1.06 ± 0.11 S/m
- electrical conductivity ([2]; 298.15 K, x2 = 0.5896): 1.31 ± 0.13 S/m
- electrical conductivity ([2]; 298.15 K, x2 = 0.652): 1.62 ± 0.16 S/m
- electrical conductivity ([2]; 298.15 K, x2 = 0.7184): 1.99 ± 0.2 S/m
- viscosity ([2]; 298.15 K, x2 = 0): 190.9 ± 55 mPa·s
- viscosity ([2]; 298.15 K, x2 = 0.1101): 113.9 ± 20 mPa·s
- viscosity ([2]; 298.15 K, x2 = 0.1679): 89.1 ± 11 mPa·s
- viscosity ([2]; 298.15 K, x2 = 0.2812): 61.6 ± 2.8 mPa·s
- viscosity ([2]; 298.15 K, x2 = 0.3581): 41.6 ± 2.1 mPa·s
- viscosity ([2]; 298.15 K, x2 = 0.4987): 25.5 ± 1.3 mPa·s
- viscosity ([2]; 298.15 K, x2 = 0.5075): 24 ± 1.3 mPa·s
- viscosity ([2]; 298.15 K, x2 = 0.573): 19.6 ± 1 mPa·s
- viscosity ([2]; 298.15 K, x2 = 0.72): 10.82 ± 0.6 mPa·s
- electrical conductivity ([2]; 308.15 K, x2 = 0.4907): 1.38 ± 0.14 S/m
- viscosity ([2]; 308.15 K, x2 = 0): 110.3 ± 19 mPa·s
- viscosity ([2]; 308.15 K, x2 = 0.1101): 69.4 ± 5 mPa·s
- viscosity ([2]; 308.15 K, x2 = 0.1679): 56.2 ± 1.5 mPa·s
- viscosity ([2]; 308.15 K, x2 = 0.2812): 40.3 ± 2.1 mPa·s
- viscosity ([2]; 308.15 K, x2 = 0.3581): 28.1 ± 1.5 mPa·s
- viscosity ([2]; 308.15 K, x2 = 0.4987): 17.72 ± 0.95 mPa·s
- viscosity ([2]; 308.15 K, x2 = 0.5075): 16.76 ± 0.89 mPa·s
- viscosity ([2]; 308.15 K, x2 = 0.573): 13.83 ± 0.75 mPa·s
- viscosity ([2]; 308.15 K, x2 = 0.72): 7.76 ± 0.45 mPa·s
- electrical conductivity ([2]; 318.15 K, x2 = 0.4907): 1.65 ± 0.17 S/m
- viscosity ([2]; 318.15 K, x2 = 0): 68.5 ± 4.7 mPa·s
- viscosity ([2]; 318.15 K, x2 = 0.1101): 45.1 ± 2.3 mPa·s
- viscosity ([2]; 318.15 K, x2 = 0.1679): 37.5 ± 1.9 mPa·s
- viscosity ([2]; 318.15 K, x2 = 0.2812): 27.8 ± 1.4 mPa·s
- viscosity ([2]; 318.15 K, x2 = 0.3581): 19.89 ± 1.1 mPa·s
- viscosity ([2]; 318.15 K, x2 = 0.4987): 12.92 ± 0.7 mPa·s
- viscosity ([2]; 318.15 K, x2 = 0.5075): 12.25 ± 0.67 mPa·s
- viscosity ([2]; 318.15 K, x2 = 0.573): 10.19 ± 0.57 mPa·s
- viscosity ([2]; 318.15 K, x2 = 0.72): 5.85 ± 0.35 mPa·s

SMILES: CCn1cc[n+](C)c1.F[B-](F)(F)F [1-ethyl-3-methylimidazolium tetrafluoroborate]
- viscosity ([1]; 288.15 K): 55.5 ± 1.4 mPa·s
- viscosity ([1]; 298.15 K): 36.9 ± 1.9 mPa·s
- electrical conductivity ([1]; 298.15 K): 1.63 ± 0.16 S/m
- viscosity ([1]; 308.15 K): 26 ± 1.4 mPa·s
- viscosity ([1]; 318.15 K): 19.17 ± 1 mPa·s

SMILES: O [water] + CCn1cc[n+](C)c1.F[B-](F)(F)F
- viscosity ([2]; 288.15 K, x1 = 1): 1.137 ± 0.12 mPa·s
- viscosity ([2]; 298.15 K, x1 = 1): 0.89 ± 0.11 mPa·s
- viscosity ([2]; 308.15 K, x1 = 1): 0.719 ± 0.098 mPa·s
- viscosity ([2]; 318.15 K, x1 = 1): 0.597 ± 0.092 mPa·s

SMILES: CCn1cc[n+](C)c1.F[B-](F)(F)F [1-ethyl-3-methylimidazolium tetrafluoroborate] + O
- electrical conductivity ([2]; 288.15 K, x2 = 0.4933): 4 ± 0.4 S/m
- viscosity ([2]; 288.15 K, x2 = 0): 55.5 ± 1.4 mPa·s
- viscosity ([2]; 288.15 K, x2 = 0.0985): 36.2 ± 1.9 mPa·s
- viscosity ([2]; 288.15 K, x2 = 0.2191): 23.88 ± 1.3 mPa·s
- viscosity ([2]; 288.15 K, x2 = 0.3053): 18.26 ± 0.98 mPa·s
- viscosity ([2]; 288.15 K, x2 = 0.3982): 13.26 ± 0.72 mPa·s
- viscosity ([2]; 288.15 K, x2 = 0.4916): 10.29 ± 0.57 mPa·s
- viscosity ([2]; 288.15 K, x2 = 0.5989): 7.28 ± 0.42 mPa·s
- viscosity ([2]; 288.15 K, x2 = 0.6991): 5.43 ± 0.33 mPa·s
- viscosity ([2]; 288.15 K, x2 = 0.8029): 3.18 ± 0.22 mPa·s
- viscosity ([2]; 288.15 K, x2 = 0.8991): 2.32 ± 0.18 mPa·s
- electrical conductivity ([2]; 298.15 K, x2 = 0): 1.63 ± 0.16 S/m
- electrical conductivity ([2]; 298.15 K, x2 = 0.3665): 4.1 ± 0.41 S/m
- electrical conductivity ([2]; 298.15 K, x2 = 0.4933): 5.26 ± 0.53 S/m
- electrical conductivity ([2]; 298.15 K, x2 = 0.5498): 6.07 ± 0.61 S/m
- electrical conductivity ([2]; 298.15 K, x2 = 0.6599): 7.64 ± 0.76 S/m
- electrical conductivity ([2]; 298.15 K, x2 = 0.7332): 8.15 ± 0.82 S/m
- electrical conductivity ([2]; 298.15 K, x2 = 0.7856): 8.44 ± 0.84 S/m
- electrical conductivity ([2]; 298.15 K, x2 = 0.8249): 8.52 ± 0.85 S/m
- electrical conductivity ([2]; 298.15 K, x2 = 0.8555): 8.47 ± 0.85 S/m
- electrical conductivity ([2]; 298.15 K, x2 = 0.8799): 8.36 ± 0.84 S/m
- electrical conductivity ([2]; 298.15 K, x2 = 0.8999): 8.18 ± 0.82 S/m
- electrical conductivity ([2]; 298.15 K, x2 = 0.9166): 7.9 ± 0.8 S/m
- electrical conductivity ([2]; 298.15 K, x2 = 0.9307): 7.43 ± 0.76 S/m
- electrical conductivity ([2]; 298.15 K, x2 = 0.9428): 7.1 ± 0.73 S/m
- electrical conductivity ([2]; 298.15 K, x2 = 0.9533): 6.56 ± 0.69 S/m
- electrical conductivity ([2]; 298.15 K, x2 = 0.9625): 6.13 ± 0.68 S/m
- electrical conductivity ([2]; 298.15 K, x2 = 0.9706): 5.43 ± 0.54 S/m
- electrical conductivity ([2]; 298.15 K, x2 = 0.9778): 4.76 ± 0.48 S/m
- electrical conductivity ([2]; 298.15 K, x2 = 0.9842): 4.03 ± 0.4 S/m
- electrical conductivity ([2]; 298.15 K, x2 = 0.99): 2.95 ± 0.3 S/m
- electrical conductivity ([2]; 298.15 K, x2 = 0.9952): 1.79 ± 0.18 S/m
- viscosity ([2]; 298.15 K, x2 = 0): 36.9 ± 1.9 mPa·s
- viscosity ([2]; 298.15 K, x2 = 0.0985): 25.2 ± 1.3 mPa·s
- viscosity ([2]; 298.15 K, x2 = 0.2191): 16.66 ± 0.9 mPa·s
- viscosity ([2]; 298.15 K, x2 = 0.3053): 13.51 ± 0.74 mPa·s
- viscosity ([2]; 298.15 K, x2 = 0.3982): 10.02 ± 0.56 mPa·s
- viscosity ([2]; 298.15 K, x2 = 0.4916): 7.91 ± 0.46 mPa·s
- viscosity ([2]; 298.15 K, x2 = 0.5989): 5.62 ± 0.34 mPa·s
- viscosity ([2]; 298.15 K, x2 = 0.6991): 4.23 ± 0.27 mPa·s
- viscosity ([2]; 298.15 K, x2 = 0.8029): 2.5 ± 0.19 mPa·s
- viscosity ([2]; 298.15 K, x2 = 0.8991): 1.82 ± 0.15 mPa·s
- electrical conductivity ([2]; 308.15 K, x2 = 0.4933): 5.9 ± 0.59 S/m
- viscosity ([2]; 308.15 K, x2 = 0): 26 ± 1.4 mPa·s
- viscosity ([2]; 308.15 K, x2 = 0.0985): 18.45 ± 0.99 mPa·s
- viscosity ([2]; 308.15 K, x2 = 0.2191): 12.64 ± 0.7 mPa·s
- viscosity ([2]; 308.15 K, x2 = 0.3053): 10.39 ± 0.58 mPa·s
- viscosity ([2]; 308.15 K, x2 = 0.3982): 7.85 ± 0.45 mPa·s
- viscosity ([2]; 308.15 K, x2 = 0.4916): 6.26 ± 0.37 mPa·s
- viscosity ([2]; 308.15 K, x2 = 0.5989): 4.49 ± 0.29 mPa·s
- viscosity ([2]; 308.15 K, x2 = 0.6991): 3.4 ± 0.23 mPa·s
- viscosity ([2]; 308.15 K, x2 = 0.8029): 2.03 ± 0.16 mPa·s
- viscosity ([2]; 308.15 K, x2 = 0.8991): 1.477 ± 0.14 mPa·s
- electrical conductivity ([2]; 318.15 K, x2 = 0.4933): 6.95 ± 0.7 S/m
- viscosity ([2]; 318.15 K, x2 = 0): 19.17 ± 1 mPa·s
- viscosity ([2]; 318.15 K, x2 = 0.0985): 14.01 ± 0.77 mPa·s
- viscosity ([2]; 318.15 K, x2 = 0.2191): 9.9 ± 0.56 mPa·s
- viscosity ([2]; 318.15 K, x2 = 0.3053): 8.23 ± 0.47 mPa·s
- viscosity ([2]; 318.15 K, x2 = 0.3982): 6.33 ± 0.38 mPa·s
- viscosity ([2]; 318.15 K, x2 = 0.4916): 5.09 ± 0.32 mPa·s
- viscosity ([2]; 318.15 K, x2 = 0.5989): 3.68 ± 0.25 mPa·s
- viscosity ([2]; 318.15 K, x2 = 0.6991): 2.81 ± 0.2 mPa·s
- viscosity ([2]; 318.15 K, x2 = 0.8029): 1.696 ± 0.15 mPa·s
- viscosity ([2]; 318.15 K, x2 = 0.8991): 1.2 ± 0.12 mPa·s
